The source of these data is publication PMC8286840, “Identifying SARS-CoV-2 antiviral compounds by screening for small molecule inhibitors of Nsp3 papain-like protease” (Biochemical Journal, 2021).

The structures appear in SMILES notation. Entries after “also recorded” stand apart in the source; their conditions may differ. Where two headings read alike, the source gives them in different places.

As usually defined, the IC50 is the concentration at which inhibition is half-maximal. A lower IC50 goes with higher potency. In general, inhibition refers to how much of the control response was suppressed.

Series [1] concerns the target T1, SARS-CoV-2 PLpro (nsp3 1564–1878) (Severe acute respiratory syndrome coronavirus 2, UniProt P0DTD1). Nature of the series: biochemical. As to conditions: read-out: % of control remaining.
The target in series [2] is T1, SARS-CoV-2 PLpro (nsp3 1564–1878). Nature of the series: biochemical. As to conditions: read-out: % of control remaining. This is another data set of the same source.
For series [3], the system named is SARS-CoV-2. Nature of the series: microbe, parasite or virus in culture. It counts as cell-based.
Series [4] relates to VERO E6 cells.
The subject of series [5] is SARS-CoV-1/-2 PLpro. The settings on record: non-covalent inhibitor; cited from earlier work.
Series [6] has as its system VERO E6 cells. Nature of the series: Cytotoxicity in the cell culture-based assay.
In series [7] the target is T1, SARS-CoV-2 PLpro (nsp3 1564–1878). Nature of the series: biochemical. The class given is biochemical. As to conditions: for IC50: fluorescent-based assay; for Z score: screen hits, Table 1; for inhibition at 1.25 µM / slope value (of slope value/control) 1.25 µM / inhibition at 3.75 µM / slope value (of slope value/control) 3.75 µM: screen; for inhibition at 1.25 µM / slope value (of slope value/control) 1.25 µM: 1.25 µM compound; for inhibition at 1.25 µM / inhibition at 3.75 µM: 1.75 µM enzyme, 20 µM substrate; for inhibition at 1.25 µM: read-out: Inhibition (%) 1.25 µM; for slope value (of slope value/control) 1.25 µM / slope value (of slope value/control) 3.75 µM: number after the slash is the control without compound; for inhibition at 3.75 µM / slope value (of slope value/control) 3.75 µM: 3.75 µM compound; for inhibition at 3.75 µM: read-out: Inhibition (%) 3.75 µM.

The target of series [8] is T2, SARS-CoV-2 PLpro (Severe acute respiratory syndrome coronavirus 2, UniProt P0DTD1). It counts as biochemical. As to conditions: 10 µM inhibitor, 50 nM PLpro, 1 µM substrate, 1 h 25°C.
In series [9] the target is T2, SARS-CoV-2 PLpro. The class given is biochemical. As to conditions: 10 µM inhibitor, 50 nM PLpro, 1 µM substrate, 1 h 25°C. The source holds these as a separate data set.
For series [10], the system named is PLpro from SARS-CoV-1. The settings on record: cited from earlier work.
Series [11] addresses T2, SARS-CoV-2 PLpro. The class given is biochemical. The settings on record: 3.75 µM and 10 µM compound, 0.5 µM enzyme, 5 h RT.
In series [12] the target is 3CLpro (nsp5) (Severe acute respiratory syndrome coronavirus 2, UniProt P0DTD1). It counts as biochemical, SARS-CoV-2.
The mark [13] stands for this setting: Severe acute respiratory syndrome coronavirus 2, Vero C1008, VERO E6 cells, compound alone, read-out: EC50 viral proliferation.

`C=C1C(=O)O[C@@H]2[C@H]3O[C@]3(C)CC/C=C(\C)CC[C@@H]12` [Parthenolide]: in series [1], the remaining activity at 3.75 µM came out at 97.3%. For the same compound, the remaining activity at 1.25 µM in series [2] was 96.7%.
As to `Cc1ccc(N)cc1C(=O)N[C@H](C)c1cccc2ccccc12` [GRL-0617], the EC50 amounted to 32.6 µM in series [3] (read-out: EC50 viral proliferation) and 32.2 µM in series [3] (read-out: EC50 viral proliferation with remdesivir). Further, the Cytotoxicity result in series [4] was “some cell toxicity at higher concentrations”. Besides, the “Effectiveness against SARS-CoV-1/-2 PLpro” value in series [5] is given as “effective”.
On to `Cc1cccc2c3c(ccc12)C1=C(C(=O)C3=O)[C@@H](C)CO1` [Dihydrotanshinone I], for which, in series [6], the Cytotoxicity entry is “did not exhibit much cytotoxicity”. For the same compound, in [3] (setting [13]), the EC50 is 8 µM. Besides, the EC50 in series [3] (Severe acute respiratory syndrome coronavirus 2, Vero C1008, VERO E6 cells, compound plus 0.5 µM remdesivir, read-out: EC50 viral proliferation with remdesivir) turned out to be 5.35 µM. Further, in [3] (VERO E6 cells, compound alone, read-out: EC50 viral proliferation), the EC50 worked out at 8.15 µM. In series [7], the IC50 was 0.586 µM, the Z score is −4.52, the inhibition at 1.25 µM came out at 0% and the “slope value (of slope value/control) 1.25 µM” value is 449. For the same compound, in series [7], the inhibition at 3.75 µM came out at 33% and the “slope value (of slope value/control) 3.75 µM” value was found to be 329. Further, the half-maximal inhibitory concentration (IC50) in series [7] (listed as dihydrotanshione I) stood at 0.59 µM. In addition, the “Inhibition of pro-ISG15 cleavage (deISGylating activity)” value in series [8] was “potent inhibition”. Moreover, in series [9], the “Inhibition of K48-linked Ub3 cleavage (DUB activity)” value is “potent inhibition; also recorded: inhibited strongly”. Also, the “Inhibition of SARS-CoV-1 PLpro” value in [10] is recorded as “inhibit”. The “Inhibition of PLpro cleavage of the substrate (gel-based)” value in [11] is on record as “show inhibition; also recorded: strongly inhibited”. Moreover, in [12] (3 and 10 µM compound), the “Inhibition of 3CLpro activity (gel-based)” value is recorded as “did not inhibit”.
As for `C[N+]1(C)CCc2cc3c(cc2[C@H]1[C@@H]1OC(=O)c2c1ccc1c2OCO1)OCO3` [(-)-Bicuculline methbromide, 1(S), 9(R)], the remaining activity at 3.75 µM in [1] turned out to be 103%. In [2], the remaining activity at 1.25 µM came to 100%.
Regarding `CC1(C)CCC2=C(O1)c1ccccc1C(=O)C2=O` [beta-Lapachone], the Cytotoxicity entry in [6] was “cytotoxic in the low micromolar range”. Moreover, the EC50 in series [3] (setting [13]) was found to be 4.39 µM. Besides, in [7], the IC50 turned out to be 0.61 µM, the Z score is listed as −4.66, the inhibition at 1.25 µM was 7% and the “slope value (of slope value/control) 1.25 µM” value is reported as 420. Further, in series [7], the inhibition at 3.75 µM came out at 34% and the “slope value (of slope value/control) 3.75 µM” value was determined as 322. Further, the “Inhibition of pro-ISG15 cleavage (deISGylating activity)” value in [8] is on record as “potent inhibition”. Moreover, in series [9], the “Inhibition of K48-linked Ub3 cleavage (DUB activity)” value is “potent inhibition; also recorded: inhibited strongly”. The “Inhibition of PLpro cleavage of the substrate (gel-based)” value in [11] is listed as “show inhibition; also recorded: strongly inhibited”. Further, in series [12], the “Inhibition of 3CLpro activity (gel-based)” value is recorded as “did not inhibit”.
